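GI50 marks 50% less growth. TGI: total growth inhibition.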
Key:
Experiment in all cases: DTP human tumour cell line panel, 384-well format
SNB-75 CNS = tested on: SNB-75 CNS
HOP-92 NSCLC = tested on: HOP-92 NSCLC
OVCAR-3 ovarian = tested on: OVCAR-3 ovarian
UO-31 renal = tested on: UO-31 renal
LOX IMVI melanoma = tested on: LOX IMVI melanoma
UACC-257 melanoma = tested on: UACC-257 melanoma
HOP-62 NSCLC = tested on: HOP-62 NSCLC
MCF7 breast = tested on: MCF7 breast
EKVX NSCLC = tested on: EKVX NSCLC
MDA-MB-468 breast = tested on: MDA-MB-468 breast
SK-MEL-5 melanoma = tested on: SK-MEL-5 melanoma
SF-295 CNS = tested on: SF-295 CNS
RXF 393 renal = tested on: RXF 393 renal
OVCAR-8 ovarian = tested on: OVCAR-8 ovarian
DU-145 prostate = tested on: DU-145 prostate
HS 578T breast = tested on: HS 578T breast
T-47D breast = tested on: T-47D breast
OVCAR-4 ovarian = tested on: OVCAR-4 ovarian
SNB-19 CNS = tested on: SNB-19 CNS
SK-OV-3 ovarian = tested on: SK-OV-3 ovarian
A498 renal = tested on: A498 renal
MDA-MB-231 breast = tested on: MDA-MB-231 breast
IGROV1 ovarian = tested on: IGROV1 ovarian
OVCAR-5 ovarian = tested on: OVCAR-5 ovarian
MALME-3M melanoma = tested on: MALME-3M melanoma
BT-549 breast = tested on: BT-549 breast
SK-MEL-28 melanoma = tested on: SK-MEL-28 melanoma
SF-539 CNS = tested on: SF-539 CNS
NCI-H322M lung = tested on: NCI-H322M lung

**Q.** How did the GI50 (SNB-75 CNS) turn out when `CN1CC[C@@H](NC(=O)Nc2ccc(C#N)cc2)C[C@@H]1c1nc2ccccc2[nH]1` was run?
**A.** The GI50 was greater than 58.6 µM.

**Q.** What about the TGI (SNB-75 CNS) of the same compound?
**A.** Its TGI is greater than 95.9 µM.

**Q.** What about the GI50 (HOP-92 NSCLC) of the same compound?
**A.** Its GI50 is 39.5 µM.

**Q.** What about the TGI (HOP-92 NSCLC) of the same compound?
**A.** The TGI was 97.4 µM.

**Q.** And the GI50 (OVCAR-3 ovarian)?
**A.** The GI50 was greater than 67.4 µM.

**Q.** And the TGI (OVCAR-3 ovarian)?
**A.** Its TGI is greater than 100 µM.

**Q.** And the GI50 (UO-31 renal)?
**A.** The GI50 was greater than 88.5 µM.

**Q.** And the TGI (UO-31 renal)?
**A.** The TGI was greater than 100 µM.

**Q.** And the GI50 (LOX IMVI melanoma)?
**A.** Its GI50 is greater than 100 µM.

**Q.** What about the TGI (LOX IMVI melanoma) of the same compound?
**A.** Its TGI is greater than 100 µM.

**Q.** And the GI50 (UACC-257 melanoma)?
**A.** The GI50 was greater than 89.3 µM.

**Q.** And the TGI (UACC-257 melanoma)?
**A.** Its TGI is greater than 100 µM.

**Q.** And the GI50 (HOP-62 NSCLC)?
**A.** Its GI50 is greater than 100 µM.

**Q.** What about the TGI (HOP-62 NSCLC) of the same compound?
**A.** The TGI was greater than 100 µM.

**Q.** And the GI50 (MCF7 breast)?
**A.** Its GI50 is greater than 72.1 µM.

**Q.** And the TGI (MCF7 breast)?
**A.** The TGI was greater than 100 µM.

**Q.** What about the GI50 (EKVX NSCLC) of the same compound?
**A.** The GI50 was greater than 93.7 µM.

**Q.** What about the TGI (EKVX NSCLC) of the same compound?
**A.** The TGI was greater than 100 µM.

**Q.** What about the GI50 (MDA-MB-468 breast) of the same compound?
**A.** Its GI50 is 32.9 µM.

**Q.** And the TGI (MDA-MB-468 breast)?
**A.** Its TGI is greater than 95.9 µM.

**Q.** What about the GI50 (SK-MEL-5 melanoma) of the same compound?
**A.** Its GI50 is 18.2 µM.

**Q.** And the TGI (SK-MEL-5 melanoma)?
**A.** Its TGI is greater than 100 µM.

**Q.** And the GI50 (SF-295 CNS)?
**A.** The GI50 was greater than 80.7 µM.

**Q.** What about the TGI (SF-295 CNS) of the same compound?
**A.** The TGI was greater than 100 µM.

**Q.** And the GI50 (RXF 393 renal)?
**A.** The GI50 was greater than 46.8 µM.

**Q.** What about the TGI (RXF 393 renal) of the same compound?
**A.** Its TGI is greater than 86.7 µM.

**Q.** What about the GI50 (OVCAR-8 ovarian) of the same compound?
**A.** Its GI50 is greater than 100 µM.

**Q.** What about the TGI (OVCAR-8 ovarian) of the same compound?
**A.** The TGI was greater than 100 µM.

**Q.** And the GI50 (DU-145 prostate)?
**A.** The GI50 was 73.8 µM.

**Q.** And the TGI (DU-145 prostate)?
**A.** Its TGI is greater than 100 µM.

**Q.** And the GI50 (HS 578T breast)?
**A.** Its GI50 is greater than 60 µM.

**Q.** What about the TGI (HS 578T breast) of the same compound?
**A.** Its TGI is greater than 100 µM.

**Q.** What about the GI50 (T-47D breast) of the same compound?
**A.** The GI50 was 37.9 µM.

**Q.** What about the TGI (T-47D breast) of the same compound?
**A.** The TGI was greater than 100 µM.

**Q.** What about the GI50 (OVCAR-4 ovarian) of the same compound?
**A.** The GI50 was 92.4 µM.

**Q.** And the TGI (OVCAR-4 ovarian)?
**A.** The TGI was greater than 100 µM.

**Q.** And the GI50 (SNB-19 CNS)?
**A.** Its GI50 is greater than 100 µM.

**Q.** And the TGI (SNB-19 CNS)?
**A.** Its TGI is greater than 100 µM.

**Q.** What about the GI50 (SK-OV-3 ovarian) of the same compound?
**A.** Its GI50 is greater than 100 µM.

**Q.** And the TGI (SK-OV-3 ovarian)?
**A.** Its TGI is greater than 100 µM.

**Q.** What about the GI50 (A498 renal) of the same compound?
**A.** The GI50 was greater than 85.2 µM.

**Q.** What about the TGI (A498 renal) of the same compound?
**A.** Its TGI is greater than 100 µM.

**Q.** What about the GI50 (MDA-MB-231 breast) of the same compound?
**A.** Its GI50 is 61.4 µM.

**Q.** What about the TGI (MDA-MB-231 breast) of the same compound?
**A.** The TGI was greater than 100 µM.

**Q.** And the GI50 (IGROV1 ovarian)?
**A.** Its GI50 is 75.1 µM.

**Q.** What about the TGI (IGROV1 ovarian) of the same compound?
**A.** The TGI was greater than 100 µM.

**Q.** And the GI50 (OVCAR-5 ovarian)?
**A.** Its GI50 is greater than 87.8 µM.

**Q.** What about the TGI (OVCAR-5 ovarian) of the same compound?
**A.** The TGI was greater than 100 µM.

**Q.** What about the GI50 (MALME-3M melanoma) of the same compound?
**A.** The GI50 was 24.4 µM.

**Q.** And the TGI (MALME-3M melanoma)?
**A.** Its TGI is greater than 61.4 µM.

**Q.** And the GI50 (BT-549 breast)?
**A.** Its GI50 is greater than 49.4 µM.

**Q.** And the TGI (BT-549 breast)?
**A.** Its TGI is greater than 93.7 µM.

**Q.** And the GI50 (SK-MEL-28 melanoma)?
**A.** The GI50 was greater than 82.8 µM.

**Q.** What about the TGI (SK-MEL-28 melanoma) of the same compound?
**A.** The TGI was greater than 100 µM.

**Q.** What about the GI50 (SF-539 CNS) of the same compound?
**A.** Its GI50 is greater than 100 µM.

**Q.** And the TGI (SF-539 CNS)?
**A.** Its TGI is greater than 100 µM.

**Q.** What about the GI50 (NCI-H322M lung) of the same compound?
**A.** The GI50 was greater than 100 µM.

**Q.** And the TGI (NCI-H322M lung)?
**A.** Its TGI is greater than 100 µM.

From PubChem BioAssay (NCI)
